Experimental data as given in patent publication US10851097B2, “4,5,6,7-tetrahydro-1H-imidazo[4,5-c]pyridine and 1,4,5,6,7,8-hexahydroimidazo[4,5-d]azepine derivatives as janus kinase inhibitors” (Topivert Pharma Limited, priority 2015, dated 2020).
In brackets after ≈: the same amount, converted by molar mass. Read-outs that look alike come from different tables or passages of the source.

How the values were obtained:
JAK3 = target: T1, JAK3 (Homo sapiens, UniProt P52333); assay: KINOMEscan enzyme binding assay (DiscoveRx), JAK3; conditions: read-out: Dissociation Constant JAK3
T1 construct: purchased DiscoveRx (LeadHunter Discover Services, KINOMEscan)
T1 sequence (P52333 813-1124 limits assumed): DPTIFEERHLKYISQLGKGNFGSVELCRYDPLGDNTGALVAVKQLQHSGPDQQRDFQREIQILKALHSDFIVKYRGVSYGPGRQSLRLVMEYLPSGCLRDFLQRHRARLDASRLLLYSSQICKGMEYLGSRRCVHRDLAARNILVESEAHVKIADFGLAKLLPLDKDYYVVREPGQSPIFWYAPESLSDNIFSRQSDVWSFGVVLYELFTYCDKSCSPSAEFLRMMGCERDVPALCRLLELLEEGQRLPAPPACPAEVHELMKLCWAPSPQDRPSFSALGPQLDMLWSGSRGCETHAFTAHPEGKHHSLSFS
Protocol: (§1) These assays may be conducted by DiscoveRx (formerly Ambit; San Diego, Calif.). The percentage inhibition produced by incubation with a test compound may be calculated relative to the non-inhibited control.

[1] = test system: CD3/IL2 stimulated PBMC cells; assay: IFNγ release from CD3/IL2 stimulated PBMC cells (assay (a)); type: cell-based; conditions: Homo sapiens, CD3/IL2 stimulation, 48 h, ELISA
Protocol: (a) IFNγ Release from CD3/IL2 Stimulated PBMC Cells
PBMCs from healthy subjects are separated from whole blood using a density gradient (Lymphoprep, Axis-Shield Healthcare). Cells are added to a 96 well plate, and compound at the desired concentration added 2 hours prior to stimulation with a mixture of monoclonal antibody to CD3 (1 μg/ml, eBioscience) and human recombinant IL2 (10 ng/ml, Peprotech). After 48 hours incubation under normal tissue culture conditions, supernatants are collected and IFNγ release determined by Sandwich ELISA (Duo-set, R&D System). The IC50 is determined from the dose response curve.

JAK2 = target: T2, JAK2 (Homo sapiens, UniProt O60674); assay: KINOMEscan enzyme binding assay (DiscoveRx), JAK2; conditions: read-out: Dissociation Constant JAK2
T2 construct: purchased DiscoveRx (LeadHunter Discover Services, KINOMEscan)
T2 sequence (O60674 840-1132 limits assumed): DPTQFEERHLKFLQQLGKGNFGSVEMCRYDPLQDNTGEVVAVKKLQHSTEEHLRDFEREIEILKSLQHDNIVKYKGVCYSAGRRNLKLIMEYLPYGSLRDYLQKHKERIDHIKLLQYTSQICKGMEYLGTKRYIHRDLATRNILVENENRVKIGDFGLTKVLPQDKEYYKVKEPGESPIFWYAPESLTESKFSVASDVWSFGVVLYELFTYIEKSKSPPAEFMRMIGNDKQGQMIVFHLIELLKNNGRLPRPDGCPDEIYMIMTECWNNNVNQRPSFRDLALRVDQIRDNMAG
Protocol: as §1

[2] = Solubility in fasted-state simulated colonic fluid (FaSSCoF) at pH 6.5; type: physicochemical; conditions: 25 °C, pH 6.5, fassgf or other biorelevant, thermodynamic from solid, pH 6.5, 25° C., Run 1, read-out: pH 6.5 FaSSCoF Solubility Run 1
Protocol: The solubilities of compounds of the invention in FaSSCoF at pH 6.5 are determined using a modification of a previously-reported procedure (Vertzoni, M., et al. Pharm. Res. 2010, 27, 2187-2196). In place of the bile salt extract employed in the original procedure (which extract is no longer available), the modified procedure uses a mixture of sodium taurochlorate (0.15 g), glycocholic acid (0.15 g), ursodeoxycholic acid (0.05 g), cholic acid (0.05 g), and glycodeoxycholic acid (0.05 g). These five bile acids are ground together with a mortar and pestle to produce a fine white powder that is incorporated into the FaSSCoF, as outlined below.
Tris(hydroxymethyl)aminomethane (Tris; 0.275 g) and maleic acid (0.44 g) are dissolved in water (35 mL) to give a solution whose pH is adjusted to 6.5 by treatment with 0.5M NaOH (ca. 12 mL). The solution is then made up to 50 mL with water. A portion of this Tris/maleate buffer solution (ca. 25 mL) is added to a 0.5 L round-bottomed flask, before being treated with 0.00565 g of the bile acid mixture described above. Solutions of phosphatidylcholine (0.0111 g) in DCM (0.15 mL) and palmitic acid (0.0013 g) in DCM (0.15 mL) are added, then the organic solvent is evaporated off under reduced pressure at 40° C. until a clear solution, with no perceptible DCM odour, is achieved. The volume of the evaporated solution is adjusted to 50 mL by addition of the remainder of Tris/maleate buffer, then BSA (0.115 g) is added, before being dissolved by gentle agitation.
Test compounds are suspended in the pH 6.5 FaSSCoF medium to give a maximum final concentration of 2-10 mg/mL. The suspensions are equilibrated at 25° C. for 24 h, before being filtered through a glass fibre C filter. The filtrates are then diluted as appropriate for injection and quantification by HPLC with reference to a standard. Different volumes of the standard, diluted and undiluted sample solutions are injected and the solubilities are calculated using the peak areas determined by integration of the peak found at the same retention time as the principal peak in the standard injection.

TYK2 = target: T3, TYK2 (Homo sapiens, UniProt P29597); assay: KINOMEscan enzyme binding assay (DiscoveRx), TYK2; conditions: read-out: Dissociation Constant TYK2
T3 construct: purchased DiscoveRx (LeadHunter Discover Services, KINOMEscan)
T3 sequence (P29597 888-1187 limits assumed): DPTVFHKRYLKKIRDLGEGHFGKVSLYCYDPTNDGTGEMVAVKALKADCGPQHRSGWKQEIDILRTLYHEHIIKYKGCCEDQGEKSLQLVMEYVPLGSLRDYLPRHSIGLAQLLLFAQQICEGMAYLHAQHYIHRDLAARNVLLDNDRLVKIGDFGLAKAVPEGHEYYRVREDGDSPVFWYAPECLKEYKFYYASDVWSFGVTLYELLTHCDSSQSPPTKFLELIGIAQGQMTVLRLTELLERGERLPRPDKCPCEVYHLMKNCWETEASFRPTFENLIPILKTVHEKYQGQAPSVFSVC
Protocol: as §1

[3] = Systemic pharmacokinetics and total colon tissue distribution after single oral administration in mice; type: in vivo, male C57BL/6 mice; conditions: for Kp: total colon tissue / plasma, po, 10 mg/kg
Protocol: Studies were conducted by Sai Life Sciences (Hinjewadi, Pune, India) to investigate the systemic pharmacokinetics and total colon tissue distribution of compounds of the invention following a single oral administration in male C57BL/6 mice.
A group of twenty four male mice were administered with a solution of test compound formulated at a dose of 10 mg/10 mL/kg in aqueous hydroxypropyl-β-cyclodextrin (20% w/v in water). Blood samples (approximately 60 μL) were collected from retro-orbital plexus of each mouse under light isoflurane anaesthesia such that the samples were obtained at 0.5, 1, 2, 4, 6, 8, 12 and 24 hr. The blood samples were collected from a set of three mice at each time point in a labeled micro centrifuge tube containing K2EDTA as anticoagulant. Plasma samples were separated by centrifugation at 4000 rpm for 10 min and stored below −70° C. until bioanalysis. After collection of blood sample, animals were humanely euthanized by carbon dioxide asphyxiation to collect total colon tissues. The colons were flushed with cold PBS (pH7.4) to remove contents. The total colon tissues were homogenized with cold PBS (pH7.4) of twice the weight of colon tissue and stored below −70° C. Total volume was three times the total colon tissue weights. All samples were processed for analysis by protein precipitation using acetonitrile and analyzed with a fit-for-purpose LC-MS/MS method. Pharmacokinetic parameters were calculated using the non-compartmental analysis tool of Phoenix WinNonlin® (Version 6.3).

[4] = male, C57BL/6, mouse, oral 10 mg/kg, plasma, read-out: Mean plasma concentration
[5] = male, C57BL/6, mouse, total colon tissue, oral 10 mg/kg, total colon, read-out: Total colon level

Structure (SMILES): CCc1cc(O)c(F)cc1-c1ccc2c(-c3nc4c([nH]3)CCN(C(=O)c3cnc(N(C)CCN5CCCC5=O)cn3)C4)n[nH]c2c1 [Example 2(k), 1-(2-((5-(2-(6-(2-ethyl-5-fluoro-4-hydroxyphenyl)-1H-indazol-3-yl)-4,5,6,7-tetrahydro-1H-imidazo[4,5-c]pyridine-5-carbonyl)pyrazin-2-yl)(methyl)amino)ethyl)pyrrolidin-2-one]
- Kd (JAK3): 0.092 nM
- IC50 [1]: 9.9 nM
- Kd (JAK2): 0.047 nM
- solubility thermodynamic at 24 h [2]: 10 µg/mL (≈ 16 µM)
- Kd (TYK2): 0.13 nM
- concentration at 0.5 h [3, 4]: 2.4 ng/mL
- concentration at 1 h [3, 4]: 2.6 ng/mL
- concentration at 2 h [3, 4]: 1.9 ng/mL
- concentration at 4 h [3, 4]: 1.1 ng/mL
- concentration at 6 h [3, 4]: 3.4 ng/mL
- concentration at 8 h [3, 4]: 4.8 ng/mL
- concentration at 12 h [3, 4]: 1.2 ng/mL
- concentration at 24 h [3, 4]: 0 ng/mL
- AUC(0-t) ([3]; male, C57BL/6, mouse, oral 10 mg/kg, plasma, read-out: AUC0-24 h P (plasma)): 20 ng·h/mL
- Cmax ([3]; male, C57BL/6, mouse, oral 10 mg/kg, plasma, read-out: Cmax P (plasma)): 4.8 ng/mL
- Kp ([3]; male, C57BL/6, mouse, read-out: AUC0-24 h ratio (total colon to plasma)): 4850
- Kp ([3]; male, C57BL/6, mouse, read-out: Cmax ratio (total colon to plasma)): 3170
- concentration at 0.5 h [3, 5]: 431 ng/g
- concentration at 1 h [3, 5]: 1160 ng/g
- concentration at 2 h [3, 5]: 5450 ng/g
- concentration at 4 h [3, 5]: 7230 ng/g
- concentration at 6 h [3, 5]: 4820 ng/g
- concentration at 8 h [3, 5]: 15200 ng/g
- concentration at 12 h [3, 5]: 2220 ng/g
- concentration at 24 h [3, 5]: 44.8 ng/g
- Cmax ([3]; male, C57BL/6, mouse, total colon tissue, oral 10 mg/kg, total colon, read-out: Cmax C (total colon)): 15200 ng/g
- Systemic plasma exposure following oral administration ([3]; oral 10 mg/kg, plasma, in words): very low
- AUC0-24 h C (total colon) ([3]; oral 10 mg/kg, total colon): 97,062 h · ng/g
- Colonic concentrations following oral administration ([3]; oral 10 mg/kg, total colon, in words): substantial colonic concentrations
